In patent US11739098B2 (BRISTOL-MYERS SQUIBB COMPANY, priority 2017, dated 2023) one finds IC50 data, which are given here for 13 molecules.

In general, IC50 refers to the concentration that gives 50% inhibition. Read a high IC50 as a need for much substance.

Holding throughout (type): cell-based
One assay has as its target T1, human TLR7 (Homo sapiens, UniProt Q9NYK1).
T1 construct: host or cells: HEK-Blue cells (HEK293-derived reporter line)
T1 sequence (Q9NYK1 27-1049): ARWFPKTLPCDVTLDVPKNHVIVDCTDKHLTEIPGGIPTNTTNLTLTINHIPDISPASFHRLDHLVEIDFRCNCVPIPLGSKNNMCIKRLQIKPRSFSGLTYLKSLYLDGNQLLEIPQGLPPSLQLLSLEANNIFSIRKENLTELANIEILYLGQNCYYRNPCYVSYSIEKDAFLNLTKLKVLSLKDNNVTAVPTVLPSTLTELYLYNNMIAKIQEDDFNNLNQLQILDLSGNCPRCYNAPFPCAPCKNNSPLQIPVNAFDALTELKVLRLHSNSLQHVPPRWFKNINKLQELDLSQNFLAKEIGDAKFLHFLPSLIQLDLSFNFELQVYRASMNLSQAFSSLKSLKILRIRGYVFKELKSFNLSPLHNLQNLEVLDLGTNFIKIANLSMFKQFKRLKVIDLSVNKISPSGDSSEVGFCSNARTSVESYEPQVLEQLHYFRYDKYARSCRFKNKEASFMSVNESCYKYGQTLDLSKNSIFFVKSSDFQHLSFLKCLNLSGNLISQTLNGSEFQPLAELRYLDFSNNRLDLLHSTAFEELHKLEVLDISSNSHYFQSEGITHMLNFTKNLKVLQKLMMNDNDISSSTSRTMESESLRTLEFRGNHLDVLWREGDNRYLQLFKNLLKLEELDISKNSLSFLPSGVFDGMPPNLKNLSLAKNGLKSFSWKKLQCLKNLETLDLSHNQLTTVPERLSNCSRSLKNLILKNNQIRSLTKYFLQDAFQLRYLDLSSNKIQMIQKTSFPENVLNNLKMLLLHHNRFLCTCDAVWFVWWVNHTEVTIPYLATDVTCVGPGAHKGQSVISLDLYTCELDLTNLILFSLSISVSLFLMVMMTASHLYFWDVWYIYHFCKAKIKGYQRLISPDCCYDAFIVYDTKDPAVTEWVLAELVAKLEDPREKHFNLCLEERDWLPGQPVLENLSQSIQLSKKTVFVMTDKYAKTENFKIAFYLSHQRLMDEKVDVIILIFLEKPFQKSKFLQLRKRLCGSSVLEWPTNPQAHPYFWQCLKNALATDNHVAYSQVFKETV
In words: TLR7 inhibition reporter assay (HEK-Blue cells, SEAP reporter, gardiquimod stimulation). Conditions: HEK-Blue cells overexpressing human TLR7, SEAP reporter, gardiquimod 7.5 μM. The method in brief:
(§1)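 After 22 h at 37 °C, SEAP secretion was measured from human TLR7-, TLR8- or TLR9-expressing HEK-Blue reporter cells given compound (0.05 nM–50 μM) 30 min before agonist: 7.5 μM gardiquimod, 15.9 μM R848 or 5 nM ODN2006 respectively. Percent inhibition referenced to agonist-plus-DMSO and known-inhibitor wells.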

A further assay has as its target T2, human TLR8 (Homo sapiens, UniProt Q9NR97).
T2 construct: host or cells: HEK-Blue cells (HEK293-derived reporter line)
T2 sequence (Q9NR97 27-1041): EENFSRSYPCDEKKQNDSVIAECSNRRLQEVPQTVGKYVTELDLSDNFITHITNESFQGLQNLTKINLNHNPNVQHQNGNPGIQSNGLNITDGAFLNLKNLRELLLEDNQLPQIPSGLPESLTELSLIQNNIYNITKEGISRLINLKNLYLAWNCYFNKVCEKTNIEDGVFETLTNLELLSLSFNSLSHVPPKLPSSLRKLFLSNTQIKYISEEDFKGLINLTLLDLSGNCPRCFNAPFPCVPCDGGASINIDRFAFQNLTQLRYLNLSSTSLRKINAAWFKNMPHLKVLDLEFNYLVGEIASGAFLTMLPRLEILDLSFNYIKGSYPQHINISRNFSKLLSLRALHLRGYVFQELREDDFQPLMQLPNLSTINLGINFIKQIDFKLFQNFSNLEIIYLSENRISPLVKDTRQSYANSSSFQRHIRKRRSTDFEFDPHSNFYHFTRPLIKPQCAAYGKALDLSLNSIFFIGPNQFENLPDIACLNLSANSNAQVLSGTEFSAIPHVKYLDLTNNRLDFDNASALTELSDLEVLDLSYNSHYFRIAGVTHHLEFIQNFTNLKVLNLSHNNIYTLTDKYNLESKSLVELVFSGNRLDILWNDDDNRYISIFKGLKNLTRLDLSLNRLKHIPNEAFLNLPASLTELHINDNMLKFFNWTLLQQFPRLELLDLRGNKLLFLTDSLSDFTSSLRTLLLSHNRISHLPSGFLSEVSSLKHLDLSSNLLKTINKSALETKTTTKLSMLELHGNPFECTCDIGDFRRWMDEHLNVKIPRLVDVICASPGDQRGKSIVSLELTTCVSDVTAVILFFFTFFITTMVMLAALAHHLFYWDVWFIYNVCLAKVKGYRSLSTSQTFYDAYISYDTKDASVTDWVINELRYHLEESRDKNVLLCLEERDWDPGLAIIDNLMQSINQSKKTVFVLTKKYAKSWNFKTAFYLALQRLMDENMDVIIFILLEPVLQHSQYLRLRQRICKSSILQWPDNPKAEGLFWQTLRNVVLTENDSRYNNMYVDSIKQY
In words: TLR8 inhibition reporter assay (HEK-Blue cells, SEAP reporter, R848 stimulation). The following applies: HEK-Blue cells overexpressing human TLR8, SEAP reporter, R848 15.9 μM. The method in brief: as §1
On the technique in general: A reporter such as luciferase makes a cellular process visible.

A further assay deals with T3, human TLR9 (Homo sapiens, UniProt Q9NR96).
T3 construct: host or cells: HEK-Blue cells (HEK293-derived reporter line)
T3 sequence (Q9NR96 26-1032): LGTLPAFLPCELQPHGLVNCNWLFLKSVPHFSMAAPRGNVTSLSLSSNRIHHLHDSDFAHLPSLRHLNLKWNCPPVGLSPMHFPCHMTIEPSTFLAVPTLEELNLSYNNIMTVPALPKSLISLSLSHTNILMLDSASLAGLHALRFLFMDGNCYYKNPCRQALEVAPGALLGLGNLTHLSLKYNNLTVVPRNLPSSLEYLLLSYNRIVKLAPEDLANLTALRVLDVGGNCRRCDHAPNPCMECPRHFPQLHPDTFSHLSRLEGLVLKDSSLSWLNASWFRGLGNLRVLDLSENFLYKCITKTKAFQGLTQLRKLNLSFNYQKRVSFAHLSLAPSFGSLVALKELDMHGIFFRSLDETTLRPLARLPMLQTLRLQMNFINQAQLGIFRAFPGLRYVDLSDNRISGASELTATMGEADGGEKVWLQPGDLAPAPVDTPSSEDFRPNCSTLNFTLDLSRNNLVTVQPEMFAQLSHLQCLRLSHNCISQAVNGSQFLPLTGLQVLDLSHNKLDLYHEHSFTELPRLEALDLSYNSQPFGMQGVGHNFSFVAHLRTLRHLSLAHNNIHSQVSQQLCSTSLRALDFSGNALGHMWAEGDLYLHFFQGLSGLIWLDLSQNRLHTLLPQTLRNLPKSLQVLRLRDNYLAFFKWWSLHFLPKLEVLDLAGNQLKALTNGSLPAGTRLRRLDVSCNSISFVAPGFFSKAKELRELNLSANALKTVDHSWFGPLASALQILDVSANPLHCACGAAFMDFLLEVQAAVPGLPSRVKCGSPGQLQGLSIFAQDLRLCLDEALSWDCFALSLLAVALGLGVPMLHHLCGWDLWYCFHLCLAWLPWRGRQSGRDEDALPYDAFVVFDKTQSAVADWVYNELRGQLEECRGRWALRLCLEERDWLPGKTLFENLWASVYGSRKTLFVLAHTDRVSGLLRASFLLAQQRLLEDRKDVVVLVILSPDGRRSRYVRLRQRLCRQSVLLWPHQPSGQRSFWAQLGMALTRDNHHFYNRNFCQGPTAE
In words: TLR9 inhibition reporter assay (HEK-Blue cells, SEAP reporter, ODN2006 stimulation). Conditions: HEK-Blue cells overexpressing human TLR9, SEAP reporter, ODN2006 5 nM. The method in brief:
as §1

Where only a bound is given, the exact number is not on record here.

On to `Cc1cc(-c2[nH]c3ccc(C4CCN(C(=O)CN(C)C)CC4)cc3c2C(C)C)c2ccccc2n1` [Example 533, 2-(dimethylamino)-1-(4-(3-isopropyl-2-(2-methylquinolin-4-yl)-1H-indol-5-yl)piperidin-1-yl)ethan-1-one], for which the figures for the IC50 on human TLR7, against human TLR8 and against human TLR9 were under 100 nM, under 100 nM and 100 to 1000 nM, respectively.
Take `CNC(=O)CN1CCC(c2ccc3[nH]c(-c4cc(C)n5cncc5c4)c(C(C)C)c3c2)CC1` [Example 440, 2-(4-(3-isopropyl-2-(5-methylimidazo[1,5-a]pyridin-7-yl)-1H-indol-5-yl)piperidin-1-yl)-N-methylacetamide]: the IC50 against human TLR7 is under 100 nM; against human TLR8, under 100 nM; against human TLR9 it was 100 to 1000 nM.
With `Cc1cn2cc(-c3[nH]c4ccc(C5CCNCC5)cc4c3C(C)C)c(C)cc2n1` [Example 122, 6-(3-isopropyl-5-(piperidin-4-yl)-1H-indol-2-yl)-2,7-dimethylimidazo[1,2-a]pyridine], the IC50 against human TLR7 was under 100 nM; against human TLR8, 100 to 1000 nM; on human TLR9, 100 to 1000 nM.
Regarding `CC(C)c1c(-c2cn(C)c3ncccc23)[nH]c2ccc(C3CCNCC3)cc12` [Example 48, 3-(3-isopropyl-5-(piperidin-4-yl)-1H-indol-2-yl)-1-methyl-1H-pyrrolo[2,3-b]pyridine], the half-inhibitory concentration (IC50) against human TLR7 is under 100 nM; at human TLR8 it was under 100 nM; at human TLR9, 1000 to 50000 nM.
On to `CC(C)c1c(-c2ccnc3[nH]ncc23)[nH]c2ccc(C3CCN(Cc4cnc(N)s4)CC3)cc12` [Example 926, 5-((4-(3-isopropyl-2-(1H-pyrazolo[3,4-b]pyridin-4-yl)-1H-indol-5-yl)piperidin-1-yl)methyl)thiazol-2-amine], for which the half-inhibitory concentration (IC50) on human TLR7 is under 100 nM; on human TLR8, under 100 nM; at human TLR9, 1000 to 50000 nM.
For `CC(C)c1c(-c2ccnc3[nH]ncc23)[nH]c2ccc(C3CCN(Cc4ccc(N5CCOCC5)cc4)CC3)cc12` [Example 912, 4-(4-((4-(3-isopropyl-2-(1H-pyrazolo[3,4-b]pyridin-4-yl)-1H-indol-5-yl)piperidin-1-yl)methyl)phenyl)morpholine], the figures for the IC50 on human TLR7, against human TLR8 and at human TLR9 were under 100 nM, under 100 nM and 100 to 1000 nM, respectively.
For `COc1cc(CN(C)C)cc(CN2CCC(c3ccc4[nH]c(-c5ccnc6[nH]ncc56)c(C(C)C)c4c3)CC2)c1O` [Example 924, 4-((dimethylamino)methyl)-2-((4-(3-isopropyl-2-(1H-pyrazolo[3,4-b]pyridin-4-yl)-1H-indol-5-yl)piperidin-1-yl)methyl)-6-methoxyphenol], the IC50 on human TLR7 was under 100 nM; at human TLR8, under 100 nM; against human TLR9, 100 to 1000 nM.
Consider `Cc1nnn2ccc(-c3[nH]c4ccc(C5CCN(C6COC6)CC5)cc4c3C(C)C)cc12` [Example 743, 5-(3-isopropyl-5-(1-(oxetan-3-yl)piperidin-4-yl)-1H-indol-2-yl)-3-methyl-[1,2,3]triazolo[1,5-a]pyridine], for which the figures for the concentration for half-maximal inhibition (IC50) on human TLR7, against human TLR8 and at human TLR9 were under 100 nM, under 100 nM and 1000 to 50000 nM, respectively.
Regarding `Cc1nnn2ccc(-c3[nH]c4ccc(C5CCN(C6CCS(=O)(=O)CC6)CC5)cc4c3C(C)C)cc12` [Example 792, 4-(4-(3-isopropyl-2-(3-methyl-[1,2,3]triazolo[1,5-a]pyridin-5-yl)-1H-indol-5-yl)piperidin-1-yl)tetrahydro-2H-thiopyran 1,1-dioxide], the half-inhibitory concentration (IC50) at human TLR7 was under 100 nM; against human TLR8, under 100 nM; at human TLR9 it was 1000 to 50000 nM.
For the molecule `CC(C)c1c(-c2cnc3ccnn3c2)[nH]c2ccc(C3CCN(C4COC4)CC3)cc12` [Example 713, 6-(3-isopropyl-5-(1-(oxetan-3-yl)piperidin-4-yl)-1H-indol-2-yl)pyrazolo[1,5-a]pyrimidine], the half-maximal inhibitory concentration (IC50) against human TLR7 is over 3130 nM; against human TLR8, over 3130 nM; against human TLR9, 1000 to 50000 nM.
With `Cc1cc2cc(-c3[nH]c4ccc(C5CCN(CC(=O)N(C)C)CC5)cc4c3C(C)C)ccn2n1` [Example 323, 2-(4-(3-isopropyl-2-(2-methylpyrazolo[1,5-a]pyridin-5-yl)-1H-indol-5-yl)piperidin-1-yl)-N,N-dimethylacetamide], the half-maximal inhibitory concentration (IC50) against human TLR7 lay in the range of 100 to 1000 nM; against human TLR8, 1000 to 50000 nM; at human TLR9 it was 1000 to 50000 nM.
For `CNCC(=O)N1CCC(c2ccc3[nH]c(-c4cc(C)n5cncc5c4)c(C(C)C)c3c2)CC1` [Example 530, 1-(4-(3-isopropyl-2-(5-methylimidazo[1,5-a]pyridin-7-yl)-1H-indol-5-yl)piperidin-1-yl)-2-(methylamino)ethan-1-one], the results for the half-inhibitory concentration (IC50) on human TLR7, against human TLR8 and at human TLR9 were under 100 nM, under 100 nM and 100 to 1000 nM, respectively.
Turning to `CNC(=O)CN1CCC(c2ccc3[nH]c(-c4cc(C)c5nc(C)c(C)n5c4)c(C(C)C)c3c2)CC1` [Example 429, 2-(4-(3-isopropyl-2-(2,3,8-trimethylimidazo[1,2-a]pyridin-6-yl)-1H-indol-5-yl)piperidin-1-yl)-N-methylacetamide], the 50% inhibitory concentration (IC50) against human TLR7 is under 100 nM; against human TLR8, 100 to 1000 nM; against human TLR9, 100 to 1000 nM.
